Data taken from publication PMC5653750, “hiPSC-CM Monolayer Maturation State Determines Drug Responsiveness in High Throughput Pro-Arrhythmia Screen” (Scientific Reports, 2017).

Assays:
[1] = test system: mature hiPSC-CM monolayers; experiment: 96-well optical mapping of action potentials (FluoVolt), mature monolayers; format: cell-based, human; conditions: for Maximum APD 80 Prolongation Risk Score (Mature hiPSC-CM): maximal effect on APD independent of dose, APD80 divided by vehicle control APD80, 30 min treatment, concentrations up to 10 µM; for effect on action potential duration (APD80), mature monolayers: spontaneous action potentials, result in words
Excerpt: (§1) hiPSC-CMs were used from two different commercial sources: Cellular Dynamics International (CDI, Madison WI) and Cellartis (Takara Bio USA). Custom made 96-well plates with inserts of PDMS (Polydimethylsiloxane) were generated essentially as before. PDMS vulcanized silicone transparent sheeting was obtained from SMI (Specialty Manufacturing, Inc, Saginaw, MI) with 40D (D, Durometer or ≈1000 kPa) hardness and 9 mm diameter coverslips were cut out to fit in each well of 96 well plates. PDMS coverslips were manually added to each well of 96 well plates (Corning) and each plate was subsequently sterilized via ethylene oxide sterilization. PDMS coverslips were then matrigel-coated (500 μg/mL; BD Biosciences, San Jose, CA) prior to plating hiPSC-CMs. Thawing and plating of cryopreserved vials of cells into 96-well plates was as essentially described before. Briefly, 5 × 10^4 cells were plated per well and allowed to form continuous monolayers and maintained in RPMI (Life Technologies) media supplemented with B27 + insulin (Life Technologies). Monolayers were maintained in culture for seven days before electrophysiological testing. Immature fetal-like hiPSC-CM monolayers were generated in 96 well plates without the PDMS coverslip inserts. Fetal-like hiPSC-CMs were also plated on matrigel coated plastic bottoms.
(§2) Optical mapping was performed as essentially described recently[22] with slight modification. A schematic of the 96-well plate optical mapping set up is shown in supplemental Fig. 1. In this assay a 96-well plate is positioned below a high speed CCD camera (200 fps, 80 × 80 pixels) on a heating block to enable recording at physiological temperature (37 °C). hiPSC-CM monolayers were loaded with the membrane potential dye called FluoVolt™ which is commercially available (ThermoFisher Scientific, F10488). Blue LED illumination was used and spontaneous or electrically excited action potentials were recorded with the CCD camera via appropriate emission filter (515 nm, green light, Chroma). For calcium flux quantification monolayers were loaded with fluo-4AM (10 µM). In this assay a 6 × 6 array of wells (supplemental Fig. 1C, 36 wells total) in the 96-well plate could be imaged simultaneously to enable rapid dose response data for all compounds using up to six different doses. Post-acquisition data analysis was done using custom software (Scroll)[22],[25] with automated peak detection capability and automated repolarization quantification to determine APD80 (action potential at 80% of repolarization). […] In some experiments electrical pacing was done to control for rate of activations (supplemental Fig. 3). A custom made frame of field stimulation electrodes was engineered to enable electrical pacing to the 6 × 6 array of wells.
(§3) Action potentials were recorded in the presence of each test compound.
(§4) The effect of each compound to prolong or shorten the APD80 of hiPSC-CM monolayers was quantified relative to vehicle control values obtained in each plate. In other words, the APD80 or CaTD80 quantified at each concentration of each compound was divided by the APD80 or CaTD80 quantified for vehicle control wells. Risk score values were quantified for both fetal-like and mature hiPSC-CM monolayers.

[2] = test system: fetal-like hiPSC-CM monolayers; experiment: 96-well optical mapping of action potentials (FluoVolt), fetal-like monolayers; format: cell-based, human; conditions: for Maximum APD 80 Prolongation Risk Score (Fetal-like hiPSC-CM): maximal effect on APD independent of dose, APD80 divided by vehicle control APD80, 30 min treatment, concentrations up to 10 µM; for effect on action potential duration (APD80), fetal-like monolayers: spontaneous action potentials, result in words
Excerpt: as §1, §2, §3, §4

[3] = set-up: method as in PMID 26893184; conditions: cited from earlier work
[4] = test system: mature hiPSC-CM monolayers; experiment: Calcium flux optical mapping (fluo-4AM), mature monolayers; format: cell-based, human; conditions: dose response; n = 4 per dose
Experimental: (§5) Optical mapping was performed as essentially described recently[22] with slight modification. A schematic of the 96-well plate optical mapping set up is shown in supplemental Fig. 1. In this assay a 96-well plate is positioned below a high speed CCD camera (200 fps, 80 × 80 pixels) on a heating block to enable recording at physiological temperature (37 °C). hiPSC-CM monolayers were loaded with the membrane potential dye called FluoVolt™ which is commercially available (ThermoFisher Scientific, F10488). Blue LED illumination was used and spontaneous or electrically excited action potentials were recorded with the CCD camera via appropriate emission filter (515 nm, green light, Chroma). For calcium flux quantification monolayers were loaded with fluo-4AM (10 µM). […] Post-acquisition data analysis was done using custom software (Scroll)[22],[25] with automated peak detection capability and automated repolarization quantification to determine APD80 (action potential at 80% of repolarization). […]
(§6) Nilotinib is an anti-cancer kinase inhibitor compound with possible side effects to prolong the QT interval. […] In Fig. 7 calcium transients were recorded using fluo-4AM loaded monolayers to study the effect of nilotinib on intracellular calcium flux dynamics. […]

[5] = test system: fetal-like hiPSC-CM monolayers; experiment: Calcium flux optical mapping (fluo-4AM), fetal-like monolayers; format: cell-based, human; conditions: dose response; n = 4 per dose
Experimental: as §5, §6

Structure (SMILES)	Maximum APD 80 Prolongation Risk Score (Mature hiPSC-CM) [1]	effect on action potential duration (APD80), mature monolayers [1]	Maximum APD 80 Prolongation Risk Score (Fetal-like hiPSC-CM) [2]	effect on action potential duration (APD80), fetal-like monolayers [2]	other results
CCCCc1oc2ccccc2c1C(=O)c1cc(I)c(OCCN(CC)CC)c(I)c1 [Amiodarone, amiodarone]	1.34	prolong the APD	0.91	shortened action potential duration	–
COc1cc(N)c(Cl)cc1C(=O)NC1CCN(CCCOc2ccc(F)cc2)CC1OC (stereo not shown) [Cisapride, cisapride]	1.15	–	1.49	–	CiPA risk class for causing Torsade de Pointes (TdP) [3]: intermediate risk
COc1ccc([C@@H]2Sc3ccccc3N(CCN(C)C)C(=O)[C@@H]2OC(C)=O)cc1 [Diltiazem, diltiazem]	–	–	0.97	–	–
CN(CCOc1ccc(NS(C)(=O)=O)cc1)CCc1ccc(NS(C)(=O)=O)cc1 [Dofetilide, dofetilide]	–	did not have as severe action potential duration prolongation	2.14	–	action potential duration alternans, mature monolayers ([1]; electrical pacing 1 Hz, 100 nM): not in the mature hiPSC-CM monolayers; action potential duration alternans, fetal-like monolayers ([2]; electrical pacing 1 Hz, 100 nM): action potential duration alternans were apparent
COc1cccc2c1C(=O)c1c(O)c3c(c(O)c1C2=O)C[C@@](O)(C(=O)CO)C[C@@H]3O[C@H]1C[C@H](N)[C@H](O)[C@H](C)O1 [Doxorubicin, doxorubicin]	1.15	–	1.15	–	–
Cc1cn(-c2cc(NC(=O)c3ccc(C)c(Nc4nccc(-c5cccnc5)n4)c3)cc(C(F)(F)F)c2)cn1 [Nilotinib, nilotinib]	1.29	APD prolongation was detected	1.36	APD prolongation was detected	calcium transient duration 80 (CaTD80), mature monolayers [4]: increased calcium transient duration 80 (CaTD80) in a dose dependent manner; calcium transient duration 80 (CaTD80), fetal-like monolayers [5]: increased calcium transient duration 80 (CaTD80) in a dose dependent manner
C=C[C@H]1C[N@@]2CC[C@H]1C[C@@H]2[C@@H](O)c1ccnc2ccc(OC)cc12 [Quinidine, quinidine]	1.81	–	1.91	–	–

More lines, main results first:

Maximum APD 80 Prolongation Risk Score (Mature hiPSC-CM) [1]	effect on action potential duration (APD80), mature monolayers [1]	Maximum APD 80 Prolongation Risk Score (Fetal-like hiPSC-CM) [2]	effect on action potential duration (APD80), fetal-like monolayers [2]	Structure (SMILES)	other results
1.64	–	–	–	CC(C)COCC(CN(Cc1ccccc1)c1ccccc1)N1CCCC1 (stereo not shown) [Bepridil, bepridil]	CiPA risk class for causing Torsade de Pointes (TdP) [3]: high risk
1.33	–	1.14	–	CN1CCN(C2=Nc3cc(Cl)ccc3Nc3ccccc32)CC1 [Clozapine, clozapine]	–
–	prolonged the action potential duration	1	did not detect any APD80 prolongation	CNCCC(Oc1ccc(C(F)(F)F)cc1)c1ccccc1 (stereo not shown) [Fluoxetine, fluoxetine]	spontaneous beating rate, mature monolayers [1]: slowed the spontaneous beating rate; quiescence, mature monolayers ([1]; any concentration tested (up to 10.0 µmol L^−1)): did not induce quiescence at any concentration tested; lowest concentration tested, at which action potential duration was already prolonged ([1]; mature monolayers): 1.0 nmol/L; monolayers in which quiescence was caused ([2]; 10.0 µmol L^−1, 8/8 monolayers): 100%; spontaneous beating frequency, fetal-like monolayers ([2]; sub-maximal doses (below 10.0 µmol L^−1)): nor alteration of the spontaneous beating frequency
1.04	–	1.12	–	CC/C(=C(\c1ccccc1)c1ccc(OCCN(C)C)cc1)c1ccccc1 [Tamoxifen, tamoxifen]	–
1.21	–	1.43	more sensitive	CC(C)(C)c1ccc(C(O)CCCN2CCC(C(O)(c3ccccc3)c3ccccc3)CC2)cc1 (stereo not shown) [Terfenadine, terfenadine]	CiPA risk class for causing Torsade de Pointes (TdP) [3]: intermediate risk
